In patent publication US20040077611A1, “Triple therapy of angiotensin converting enzyme inhibitor epoxy-steroidal aldosterone antagonist and diuretic or digoxin for treatment of cardiovascular disease” (G.D. Searle & Co., priority 1999, published 2004):
≈ marks a conversion by molar mass, not a printed value. Where two headings read alike, the source gives them in different places. Values belong to the compound of their own block, whether it stands above or below them.

Experiments:
[1] = Dissolution rate of unformulated solid state forms of eplerenone; assay type: physicochemical; conditions: temperatures below the enantiotropic transition temperature
[2] = Physical stability of solid state forms of eplerenone; assay type: physicochemical; conditions: temperatures below the enantiotropic transition temperature
[3] = test system: patients with severe HF (NYHA Class IV); conditions: cited from earlier work
[4] = Solubility of eplerenone in crystallization solvents; assay type: physicochemical; conditions: organic crystallization solvent or mixture of solvents, room temperature
[5] = test system: patients with stable NYHA Class II-IV heart failure; assay: Clinical trial of eplerenone added to ACE inhibitor and loop diuretic in heart failure (Biological Evaluation I); conditions: for plasma renin activity (PRA): 12 weeks of treatment, FIG. 28
[6] = test system: patients with stable NYHA Class II-IV heart failure; conditions: human, in vivo
[7] = test system: humans; assay: Effects of eplerenone pharmaceutical compositions in humans after oral administration; assay type: in vivo
[8] = test system: patients alive at Day 3 with Killip class >I; conditions: patients randomized to lisinopril; ACE-I treatment stopped at 42 days; cited from earlier work
[9] = test system: patients with impaired ejection fraction post AMI; conditions: cited from earlier work
[10] = test system: patients with clinical evidence of HF at any time after an AMI; conditions: cited from earlier work; for risk reduction in all cause mortality: compared to placebo (p=0.002)
[11] = test system: patients afflicted with congestive heart failure; conditions: cited from earlier work
[12] = test system: myocardial fibrosis in animal models; conditions: cited from earlier work
[13] = test system: patients with severe HF (NYHA Class III or IV); conditions: cited from earlier work
[14] = test system: patients with LV dysfunction 2 to 6 days following MI; conditions: cited from earlier work
[15] = humans, over about 12 to 24 hours after ingestion of the composition

dissolution rate relative to unformulated Form L [1]: approximately 30%
Structure (SMILES): COC(=O)[C@@H]1CC2=CC(=O)CC[C@]2(C)[C@@]23O[C@@H]2C[C@@]2(C)[C@@H](CC[C@@]24CCC(=O)O4)[C@H]13 [Form H]

physical stability relative to Form H [2]: greater physical stability
Structure (SMILES): COC(=O)[C@@H]1CC2=CC(=O)CC[C@]2(C)[C@@]23O[C@@H]2C[C@@]2(C)[C@@H](CC[C@@]24CCC(=O)O4)[C@H]13 [Form L]

Structure (SMILES): CCOC(=O)[C@H](CCc1ccccc1)N[C@@H](C)C(=O)N1CCC[C@H]1C(=O)O [enalapril]
reduction of mortality at one year ([3]; enalapril plus diuretics compared to placebo plus diuretics): 31%
mortality ([3]; group with baseline aldosterone plasma levels above the median): reduced
mortality ([3]; group with baseline aldosterone plasma levels below the median): no difference from placebo

solubility [4]: 5 to 200 mg/mL (≈ 12.1 to 483 mM)
testosterone levels [6]: lack of effect
Structure (SMILES): COC(=O)[C@@H]1CC2=CC(=O)CC[C@]2(C)[C@@]23O[C@@H]2C[C@@]2(C)[C@@H](CC[C@@]24CCC(=O)O4)[C@H]13 [eplerenone, Pregn-4-ene-7,21-dicarboxylic acid, 9,11-epoxy-17-hydroxy-3-oxo-, γ-lactone, methyl ester, (7^α, 11^α, 17^α)-]
plasma renin activity (PRA) [5]: significantly elevated
reduction in BNP ([5]; eplerenone at 25 mg and 100 mg, all patients, FIG. 29): highly significant
urinary aldosterone excretion, increase from baseline ([5]; eplerenone doses of 50 and 100 mg, 12 week visit): Greater increases
average decrease in diasystolic blood pressure [7, 15]: at least 5%
average increase in blood serum aldosterone concentrations [7, 15]: at least 50%
average increase in blood serum renin concentration [7, 15]: at least 10%
urinary log10 (sodium/potassium) ratio [7, 15]: increase
efficacy of the required daily dosage, once-a-day relative to twice-a-day administration ([7]; in vivo): does not appear to materially differ

Structure (SMILES): NCCCC[C@H](N[C@@H](CCc1ccccc1)C(=O)O)C(=O)N1CCC[C@H]1C(=O)O [lisinopril]
first-year mortality [8]: 22%

Structure (SMILES): CCOC(=O)[C@H](CCc1ccccc1)N[C@@H](C)C(=O)N1[C@H](C(=O)O)C[C@@H]2CCC[C@@H]21 [ramipril]
ventricular dilatation and systolic dysfunction [9]: prevented ventricular dilatation and further decline of systolic dysfunction
risk reduction in all cause mortality ([10]; AIRE): 27%
reduction in the risk of developing severe resistant HF ([10]; AIRE, compared to placebo (p=0.017)): 23%
risk reduction in all cause mortality ([10]; AIREX long-term (three year) follow-up): 36%

Structure (SMILES): CC(=O)S[C@@H]1CC2=CC(=O)CC[C@]2(C)[C@H]2CC[C@@]3(C)[C@@H](CC[C@@]34CCC(=O)O4)[C@H]12 [spironolactone]
clinical outcome ([11]; co-therapy of spironolactone and enalapril): Clinical improvements
patients in whom co-therapy was highly effective ([11]; spironolactone coadministered with an ACE inhibitor): 13 of 16
myocardial fibrosis ([12]; Klug et al): prevents myocardial fibrosis
fibrosis ([12]; irrespective of the development of left ventricular hypertrophy and the presence of hypertension, Brilla et al): prevent fibrosis
plasma renin activity (PRA) [5]: significantly elevated
testosterone levels ([5]; males): significant increase
ventricular dilatation and systolic dysfunction [9]: prevented ventricular dilatation and further decline of systolic dysfunction
reduction in mortality compared to placebo ([13]; as restated): > 30%
median increase in serum potassium concentration ([13]; compared to patients treated with placebo): statistically but not clinically significant
risk reduction for all cause mortality ([13]; spironolactone 25 mg daily added to standard therapy vs standard therapy plus placebo (p<0.001)): 30%
lower frequency of hospitalization for worsening HF ([13]; vs placebo patients): 35%

Structure (SMILES): CCOC(=O)[C@H](CCc1ccccc1)N[C@@H](C)C(=O)N1[C@H](C(=O)O)C[C@H]2CCCC[C@@H]21 [trandolapril]
relative reduction in the risk of death ([14]; compared to placebo (p=0.001)): 18%
reduction in the risk of progression to severe HF ([14]; compared to placebo (p=0.003)): 29%
